According to US20210213104A1, “GLUCAGON AND GLP-1 CO-AGONISTS FOR THE TREATMENT OF CHRONIC KIDNEY DISEASE AND DIABETIC KIDNEY DISEASE IN TYPE 2 DIABETES” (MEDIMMUNE LIMITED, priority 2020, published 2021):
Where “and” joins values, the source holds several entries; their conditions need not be identical. Identical values can stand only once.

Key:
[1] = test system: diet induced obese (DIO) mice; assay: Hyperinsulinemic clamps in diet induced obese (DIO) mice; format: in vivo
Protocol: Following 28 days of daily dosing with Cotadutide (10 nmol/kg), Liraglutide (5 nmol/kg; GLP-1 agonist) or g1437 (5 nmol/kg; a Gcg analog), mice underwent continuous infusion of 4 mU/kg/min insulin and [3H]-glucose to assess glucose turnover. Tissue-specific glucose uptake was assessed using 14C-2-deoxyglucose.

[2] = test system: subjects with T2DM and renal impairment; assay: Phase 2a: mixed-meal tolerance test (MMTT) plasma glucose AUC; format: in vivo, human; settings: for MMTT plasma glucose AUC4 h, LS Mean % Change / MMTT plasma glucose AUC4 h, Difference in LS Mean % Change (vs Placebo) / Percent Change from Baseline in MMTT plasma glucose AUC4 h, Mean / Percent Change from Baseline in MMTT plasma glucose AUC4 h, Median: Day −5 to Day 32; for MMTT plasma glucose AUC4 h, LS Mean % Change: ANCOVA; for MMTT plasma glucose AUC4 h, LS Mean % Change / MMTT plasma glucose AUC4 h, Difference in LS Mean % Change (vs Placebo) / Percent Change from Baseline in MMTT plasma glucose AUC4 h, Mean / Percent Change from Baseline in MMTT plasma glucose AUC4 h, Median / MMTT plasma glucose AUC4 h, Day 32, Mean / MMTT plasma glucose AUC4 h, Day 32, Median: ITT
Protocol: Cotadutide was titrated from 50 μg up to 300 μg and administered once daily by subcutaneous (SC) injection over 32 days.
Cotadutide was administered at 50 μg once daily for 4 days, followed by 100 μg daily for 7 days, 200 μg daily for 7 days, and 300 μg daily for 14 days (n=20). Placebo was administered one daily for 32 days (n=20). Cotadutide and placebo were administered in the morning. Dosing commenced following predose baseline vital signs, blood tests (including HbA1c), an electrocardiogram (ECG), body weight measurement, and bioimpedance spectroscopy (BIS). Subjects then returned for daily dosing or remained overnight locally until Day 5, and thereafter, had visits at weekly intervals until a maintenance dose of 300 μg was established. Thus, Cotadutide or placebo was administered at the study site by study personal for the first four doses and on site on Days 5, 12, 19, and 32. At all other times, subjects preformed dosing at home.
The effect of Cotadutide titrated up to a dose level of 300 μg on glucose control vs placebo after 32 days of treatment was assessed by a standardized mixed-meal tolerance test (MMTT) to determine the percentage change in glucose from area under the concentration-time curve (AUC) from baseline (Day −5) to the end of 32 days of treatment.
Following a minimum 8-hour fast, the subject underwent an MMTT, which involved the consumption of a standardized liquid meal (Ensure Plus, a nutritional supplement containing the components of fat, carbohydrate, and protein, which make up a standard MMTT) within 15 minutes, and timed serial blood samples were obtained for measurement of glucose through 240 minutes after consumption of the standardized meal (with no additional food intake during this time). Blood was drawn within 15 minutes before consuming the standardized liquid meal (i.e., “0 minutes”), and at 15, 30, 45, 60, 90, 120, 180, and 240 minutes (±5 minutes) after consumption. Blood sampling occurred as close as possible to the specified times for the MMTT. At Day 32, the serial blood sampling begins 2.5 hours after Cotadutide or placebo administration.
Subjects who used a quick acting or pre-mixed form of insulin with breakfast received their usual/current dose of breakfast-time insulin with the Ensure Plus milkshake i.e., dose reduction of insulin was not required. Subjects who carbohydrate counted or varied insulin dose in relation to meal type were advised that the Ensure Plus milkshake contained approximately 44.4 g of carbohydrate, 10.8 g of fat, and 13.8 g of protein and to adjust their insulin dose on this basis. The timing of insulin administration in relation to the Ensure Plus milkshake consumption was in accordance with the usual regimen used by the subject, e.g., if a subject injected insulin 30 minutes before breakfast, they were to inject insulin 30 minutes before the Ensure Plus milkshake.
The investigators also considered whether a dose reduction in insulin and/or sulfonylurea or glitinide was required for this fasting assessment on Day 32.
The change in the mixed-meal tolerance test (MMTT) plasma glucose AUC from the baseline (Day −5) to end of 32 days of treatment was evaluated in the ITT population using an analysis of covariance (ANCOVA) model. The model included fixed effect of treatment and baseline AUC as a covariate. The difference of the percent change in glucose AUC between the two treatment arms was compared with a two-sided significance level of 0.10.

[3] = test system: subjects with T2DM and renal impairment; assay: Phase 2a: total daily insulin dose adjustment; format: in vivo, human
Protocol: The effect of Cotadutide on insulin dose adjustment was evaluated for subjects on ≥20 U/day insulin. […] The mean percent reduction in total daily insulin dose from baseline until the end of dosing was statistically significant compared to placebo, especially in the HbA1c<8.0% subgroup (Table 15).

[4] = Phase 2a: pharmacokinetics in plasma (LC/MS-MS); format: in vivo, human
Protocol: Blood was collected to evaluate to pharmacokinetics (PK) of Cotadutide in plasma. The PK was measured using a validated liquid chromatography-tandem mass spectrometry (LC/MS-MS) method.
Pharmacokinetic characterization of Cotadutide at 300 μg was obtained using full PK profiles collected during the last day of dosing at 300 μg (Day 32). Additional Ctrough concentrations were collected through the study duration to check exposure.

CCCCCCCCCCCCCCCC(=O)N[C@@H](CCC(=O)NCCCC[C@H](NC(=O)[C@H](CC(=O)O)NC(=O)[C@H](CO)NC(=O)[C@@H](NC(=O)[C@H](Cc1ccccc1)NC(=O)[C@@H](NC(=O)CNC(=O)[C@H](CCC(N)=O)NC(=O)[C@H](CO)NC(=O)[C@@H](N)Cc1c[nH]cn1)[C@@H](C)O)[C@@H](C)O)C(=O)N[C@@H](CO)C(=O)N[C@@H](CCC(=O)O)C(=O)N[C@@H](Cc1ccc(O)cc1)C(=O)N[C@@H](CC(C)C)C(=O)N[C@@H](CC(=O)O)C(=O)N[C@@H](CO)C(=O)N[C@@H](CCC(=O)O)C(=O)N[C@@H](CCCNC(=N)N)C(=O)N[C@@H](C)C(=O)N[C@@H](CCCNC(=N)N)C(=O)N[C@@H](CC(=O)O)C(=O)N[C@@H](Cc1ccccc1)C(=O)N[C@H](C(=O)N[C@@H](C)C(=O)N[C@@H](Cc1c[nH]c2ccccc12)C(=O)N[C@@H](CC(C)C)C(=O)N[C@@H](CCC(=O)O)C(=O)N[C@@H](C)C(=O)NCC(=O)NCC(=O)O)C(C)C)C(=O)O [Cotadutide]
insulin sensitivity [1]: improves insulin sensitivity | total insulin levels during the clamp ([1]; 4 mU/kg/min insulin infusion): remained lower | glucose uptake in brown adipose tissue ([1]; 14C-2-deoxyglucose): elevated | Fasting insulin compared with vehicle ([1]; 28 days daily dosing): dramatically lower | glucose disposal rate ([1]; clamp): increased | glucose infusion rate to maintain euglycemia ˜130 mg/dL ([1]; clamp): significantly higher | MMTT plasma glucose AUC4 h, LS Mean % Change ([2]; Insulin Dose < 20 U/day): −27.16% | MMTT plasma glucose AUC4 h, LS Mean % Change ([2]; Insulin Dose ≥ 20 U/day): −25.313% | MMTT plasma glucose AUC4 h, LS Mean % Change ([2]; Total): −26.71% and −26.7% | MMTT plasma glucose AUC4 h, LS Mean % Change ([2]; Total, listed as MEDI0382): −26.71% | MMTT plasma glucose AUC4 h, LS Mean % Change ([2]; eGFR 30-44 mL/min/1.73 m^2): −27.59% | MMTT plasma glucose AUC4 h, LS Mean % Change ([2]; eGFR 45-59 mL/min/1.73 m^2): −27.95% | MMTT plasma glucose AUC4 h, Difference in LS Mean % Change (vs Placebo) ([2]; Insulin Dose < 20 U/day): −36.37% | Percent Change from Baseline in MMTT plasma glucose AUC4 h, Mean ([2]; Insulin Dose < 20 U/day): −31.99% | Percent Change from Baseline in MMTT plasma glucose AUC4 h, Median ([2]; Insulin Dose < 20 U/day): −36.99% | MMTT plasma glucose AUC4 h, Difference in LS Mean % Change (vs Placebo) ([2]; Insulin Dose ≥ 20 U/day): −25.751% | Percent Change from Baseline in MMTT plasma glucose AUC4 h, Mean ([2]; Insulin Dose ≥ 20 U/day): −25.00% | Percent Change from Baseline in MMTT plasma glucose AUC4 h, Median ([2]; Insulin Dose ≥ 20 U/day): −22.850% | MMTT plasma glucose AUC4 h, Difference in LS Mean % Change (vs Placebo) ([2]; Total): −30.38% | Percent Change from Baseline in MMTT plasma glucose AUC4 h, Mean ([2]; Total): −27.719% | Percent Change from Baseline in MMTT plasma glucose AUC4 h, Median ([2]; Total): −27.45% | MMTT plasma glucose AUC4 h, Difference in LS Mean % Change (vs Placebo) ([2]; eGFR 30-44 mL/min/1.73 m^2): −31.64% | Percent Change from Baseline in MMTT plasma glucose AUC4 h, Mean ([2]; eGFR 30-44 mL/min/1.73 m^2): −24.41% | Percent Change from Baseline in MMTT plasma glucose AUC4 h, Median ([2]; eGFR 30-44 mL/min/1.73 m^2): −22.90% | MMTT plasma glucose AUC4 h, Difference in LS Mean % Change (vs Placebo) ([2]; eGFR 45-59 mL/min/1.73 m^2): −32.87% | Percent Change from Baseline in MMTT plasma glucose AUC4 h, Mean ([2]; eGFR 45-59 mL/min/1.73 m^2): −29.83% | Percent Change from Baseline in MMTT plasma glucose AUC4 h, Median ([2]; eGFR 45-59 mL/min/1.73 m^2): −37.00% | MMTT plasma glucose AUC4 h, Day 32, Mean ([2]; Insulin Dose < 20 U/day): 594.85 mg·h/dL | MMTT plasma glucose AUC4 h, Day 32, Median ([2]; Insulin Dose < 20 U/day): 599.41 mg·h/dL | MMTT plasma glucose AUC4 h, Day 32, Mean ([2]; Insulin Dose ≥ 20 U/day): 679.23 mg·h/dL | MMTT plasma glucose AUC4 h, Day 32, Median ([2]; Insulin Dose ≥ 20 U/day): 700.08 mg·h/dL | MMTT plasma glucose AUC4 h, Day 32, Mean ([2]; Total): 646.42 mg·h/dL | MMTT plasma glucose AUC4 h, Day 32, Median ([2]; Total): 619.33 mg·h/dL | MMTT plasma glucose AUC4 h, Day 32, Mean ([2]; eGFR 30-44 mL/min/1.73 m^2): 618.21 mg·h/dL | MMTT plasma glucose AUC4 h, Day 32, Median ([2]; eGFR 30-44 mL/min/1.73 m^2): 700.10 mg·h/dL | MMTT plasma glucose AUC4 h, Day 32, Mean ([2]; eGFR 45-59 mL/min/1.73 m^2): 664.37 mg·h/dL | MMTT plasma glucose AUC4 h, Day 32, Median ([2]; eGFR 45-59 mL/min/1.73 m^2): 605.70 mg·h/dL | postprandial plasma glucose concentrations on Day 32 ([2]; pre-standardized liquid meal to 180 minutes post meal): lower than placebo | reduction in insulin dose ([3]; over 32 days, P=0.012): 35.2% | percentage reduction from baseline in total daily insulin dose at the end of treatment ([3]; participants with insulin dose of at least 20 U/day, Day −2 to end of treatment): −35.2% | AUC ([4]; human, plasma, 300 ug, Day 32, 300 μg SC, geometric mean, N = 16): 286 ng·h/mL | Cmax ([4]; human, plasma, 300 ug, Day 32, 300 μg SC, geometric mean, N = 18): 16.9 ng/mL | Tmax ([4]; human, plasma, 300 ug, Day 32, 300 μg SC, median, N = 18): 5.6 h | PK linearity for Ctrough ([4]; repeat daily SC doses 50 to 300 μg): linear PK
